Test results as given in US20260034075A1, “CHOLINE CARBOXYLIC ACID BASED IONIC LIQUIDS AS ANTIMICROBIAL AGENTS” (University of Mississippi, priority 2022, published 2026).
Read-outs that look alike come from different tables or passages of the source.

Assays:
MRSA [BAA-1708] = assay: Growth inhibition / MBC of Methicillin Resistant Staphylococcus aureus (MRSA); type: cell-based
Procedure: (§1) Bacterial Cell Culturing. Expression cells from frozen stock were streaked onto a kanamycin-selected lysogeny broth (LBKan) agar plate using a sterile loop and incubated overnight at 37° C. One colony was then taken from the plate the next day to inoculate 50 mL of sterile LBKan broth and shaken at 37° C. until reaching a growth concentration of 4×10^8 CFU/mL. This protocol was used for bacterial cell culture preparation in all of the experiments described below.
Growth Inhibition of Methicillin Resistant Staphylococcus Aureus (MRSA). 10% (w/v) solutions of IL in sterile water were prepared similarly to the E. coli MBC experiments. ILs with anion chain lengths of 8-12 carbons at 1:2 mole ratio of choline to anion were added to MRSA at varying concentrations to determine the lowest concentration in which growth was inhibited. Concentrations were then compared to values obtained for E. coli for each solution.

E. coli [BL21(DE3)] = assay: Minimal Bactericidal Concentration (MBC) measurements, E. coli; type: cell-based
Procedure: as §1
Minimal Bactericidal Concentration (MBC) Measurements. E. coli cells were cultured as described above and aliquoted into sterile tubes. 1%, 10%, and 100% (w/v) solutions of IL in sterile water (correcting for water percentage of the IL) were prepared and sonicated for 15 minutes at 40° C. before addition to the liquid culture. IL solutions were then added to E. coli at varying percentages (v/v), allowing calculation of the actual concentration of IL that was added to the culture. 100 μL of each solution was then spread onto an LBKan agar plate and incubated overnight at 37° C. […] Each IL solution was tested in triplicate.

[1] = Table 1, lowest IL concentration with no growth on LBKan agar plate, triplicate

Substance: Choline 3-Decenoate 1:2 [CA3DE 1:2]
- MRSA MBC (MRSA [BAA-1708]; Table 2, 1:2 mole ratio ILs): 1130 µM
- E. coli MBC (E. coli [BL21(DE3)]; [1]): 570 µM
- E. coli MBC (E. coli [BL21(DE3)]; Table 2, comparison with MRSA): 570 µM

Substance: Choline Dodecanoate 1:2 [CADDA 1:2]
- MRSA MBC (MRSA [BAA-1708]): 990 µM
- MRSA MBC (MRSA [BAA-1708]; Table 2, 1:2 mole ratio ILs): 990 µM
- E. coli MBC (E. coli [BL21(DE3)]; [1]): 8340 µM
- E. coli MBC (E. coli [BL21(DE3)]; Table 2, comparison with MRSA): 8340 µM

Substance: Choline Undecanoate 1:2 [CAUA 1:2]
- MRSA MBC (MRSA [BAA-1708]; Table 2, 1:2 mole ratio ILs): 2100 µM
- E. coli MBC (E. coli [BL21(DE3)]; [1]): 1980 µM
- E. coli MBC (E. coli [BL21(DE3)]; Table 2, comparison with MRSA): 1980 µM

Substance: Choline 2-Undecenoate 1:2 [CA2UE 1:2]
- MRSA MBC (MRSA [BAA-1708]; Table 2, 1:2 mole ratio ILs): 1060 µM
- E. coli MBC (E. coli [BL21(DE3)]; [1]): 1780 µM
- E. coli MBC (E. coli [BL21(DE3)]; Table 2, comparison with MRSA): 1780 µM
